pIC50: −log10 of the molar value. Like-named read-outs stand apart in the source and are kept apart here.

Experiment [1] concerns the target FLAP (human ALOX5AP expressed in COS-7 cell membranes) (Homo sapiens (Human), UniProt P20292). In words: FLAP Binding Assay (Test A), competition binding with 3H-MK591 as tracer. The settings on record: competition with 3H-MK591 (2 nM), membranes from COS-7 cells expressing human ALOX5AP, 60 min at rt. The method, then: FLAP Binding Assay (Test A) Compounds were tested in a competition binding assay using ^3H-MK591 as tracer. […] Med. Chem. […] A 100,000×g pellet from COS-7 cells stably transfected with a plasmid expressing human ALOX5AP was the source of FLAP. […] Following filtration, filter plates were dried 12 h at RT (or 50° C. for 1 hour). 50 μL scintillant was then added, the filterplates were sealed and radioactivity was measured in a microbeta counter. Specific binding was defined as total binding minus non-specific binding. Total binding was defined as ^3H-MK591 bound to membranes in the absence of competitor, non-specific binding was defined as ^3H-MK591 in the presence of 0.1 mM MK-591. IC50 values were determined by plotting % inhibition versus log compound concentration and using a one site dose response model.

The test system of experiment [2] is LTB4 production in fresh human whole blood. Put plainly: FLAP Whole Blood Assay (Test B), inhibition of LTB4 production. The experiment is classed as cell-based. The settings on record: then calcium ionophore A23187, LTB4 by EIA. The method, then: FLAP Whole Blood Assay (Test B)
Compounds were tested for the inhibition of LTB4 production in fresh human whole blood obtained by venapuncture using heparin to prevent clotting. 1.5 μL compounds or DMSO carrier were dispensed into the wells of a 96-well deep-well plate in 3-fold dilution series. 500 μL hepamised whole blood was then added followed by incubation at 37° C. for 30 min (method A) or 4 h (method B). 100 μL blood was subsequently transferred in triplicate to pre-dispensed 0.5 μL 2 mM calcium ionophore (calcimycin; A23187) in a second 96-well plate. Following incubation at 37° C. for 20 min, the assays were stopped by adding 10 μL of stop solution (100 mM EGTA, pH 7.4) and the plate was transferred to ice. The plate was centrifuged at 3000 rpm at 4° C. for 10 min and […] was transferred to a fresh 96 well plate containing 90 μL pre-dispensed EIA assay buffer (0.1 M phosphate buffer+0.1% BSA). LTB4 was then measured using reagents from a commercial EIA (Cayman Chemicals). LTB4 production was defined as the LTB4 level in the presence of a given concentration of test compound minus the LTB4 level in the presence of 50 nM 5-[[4-[(2S,4R)-4-hydroxy-2-methyl-tetrahydropyran-4-yl]-2-thienyl]sulfanyl]-1-methyl-indolin-2-one. (Preparation of 5-[[4-[(2S,4R)-4-hydroxy-2-methyl-tetrahydropyran-4-yl]-2-thienyl]sulfanyl]-1-methyl-indolin-2-one was described in Org. Process Res. Dev., 2005, 9, 555-569 or EP623614 B1). Inhibition of LTB4 production was defined as the LTB4 level in the presence of a given concentration of test compound expressed as a % of the LTB4 level in the presence of DMSO. IC50 values were determined by plotting % inhibition versus log compound concentration and using a one site dose response model.

Setting [3] is: 0.5 h, method A: compound incubated with human whole blood at 37° C. for 30 min, read-out: IC50 nM (method A).
[4] abbreviates: method B: compound incubated with human whole blood at 37° C. for 4 h, read-out: IC50 nM (method B).

Sequence of FLAP (human ALOX5AP expressed in COS-7 cell membranes) (P20292 whole entry): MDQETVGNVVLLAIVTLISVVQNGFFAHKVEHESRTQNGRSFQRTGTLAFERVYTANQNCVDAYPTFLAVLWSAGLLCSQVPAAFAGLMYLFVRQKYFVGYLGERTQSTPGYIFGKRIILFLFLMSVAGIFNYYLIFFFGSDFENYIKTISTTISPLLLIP

By pIC50 is commonly meant the negative decadic logarithm of the IC50, by convention in mol/L. As a reminder, the IC50 is the concentration needed to halve the response being measured. Consider `COc1c(NC(=O)C2CCCCC2C(=O)c2ccc(-c3cc[nH]n3)cc2)cnn1C` (racemic) [Example 14, (1R,2R and 1S,2S)—N-(5-Methoxy-1-methyl-1H-pyrazol-4-yl)-2-[4-(1H-pyrazol-3-yl)benzoyl]cyclohexanecarboxamide], for which, in experiment [1], the pIC50 was 6.40. In addition, the IC50 in experiment [2] (setting [3]) worked out at 654 nM.

The molecule `Cn1ncc(NC(=O)C2CCCCC2C(=O)c2ccc(-c3ccn[nH]3)cc2Cl)c1C(N)=O` (racemic) [Example 31, 4-[({(1R,2R and 1S,2S)-2-[2-Chloro-4-(1H-pyrazol-5-yl)benzoyl]-cyclohexyl}carbonyl)amino]-1-methyl-1H-pyrazole-5-carboxamide] gave a pIC50 in experiment [1] of 6.72. Also, the half-inhibitory concentration (IC50) in experiment [2] (setting [4]) was 390 nM.

`Cc1cc(-c2ccc(C(=O)C3CCCCC3C(=O)Nc3cnn(C)c3C(N)=O)c(Cl)c2)[nH]n1` (racemic) [Example 32, 4-[({(1R,2R and 1S,2S)-2-[2-Chloro-4-(3-methyl-1H-pyrazol-5-yl)benzoyl]cyclohexyl}carbonyl)amino]-1-methyl-1H-pyrazole-5-carboxamide] showed a pIC50 in experiment [1] of 6.77. Further, the IC50 in experiment [2] (setting [4]) was determined as 915 nM.

`CCn1cc(NC(=O)C2CCCCC2C(=O)c2ccc(-c3ccn[nH]3)cc2)c(C(N)=O)n1` (racemic) [Example 42, 1-Ethyl-4-[({(1R,2R and 1S,2S)-2-[4-(1H-pyrazol-5-yl)benzoyl]-cyclohexyl}carbonyl)amino]-1H-pyrazole-3-carboxamide]: the pIC50 in experiment [1] was 6.70. Besides, in experiment [2] (setting [3]), the IC50 came to 149 nM.

In experiment [1], `Cc1cc(NC(=O)C2CCCCC2C(=O)c2ccc(-c3ccn[nH]3)cc2)on1` (racemic) [Example 44, (1R,2R and 1S,2S)—N-(3-Methyl-1,2-oxazol-5-yl)-2-[4-(1H-pyrazol-5-yl)benzoyl]cyclohexanecarboxamide] had a pIC50 of 7.34. Also, the IC50 in experiment [2] (setting [3]) was 197 nM.

In experiment [1], `Cc1coc(NC(=O)C2CCCCC2C(=O)c2ccc(-c3ccn[nH]3)cc2)n1` (racemic) [Example 45, (1R,2R and 1S,2S)—N-(4-Methyl-1,3-oxazol-2-yl)-2-[4-(1H-pyrazol-5-yl)benzoyl]cyclohexanecarboxamide] had a pIC50 of 6.68.

`Cc1cc(-c2ccc(C(=O)C3CCCCC3C(=O)Nc3cnn(C)c3C#N)cc2)[nH]n1` (racemic) [Example 46, (1R,2R and 1S,2S)—N-(5-Cyano-1-methyl-1H-pyrazol-4-yl)-2-[4-(3-methyl-1H-pyrazol-5-yl)benzoyl]cyclohexanecarboxamide] showed a pIC50 in experiment [1] of 7.07. Also, the IC50 in experiment [2] (setting [3]) worked out at 170 nM.

On to `O=C(Nc1nc(C2CC2)ns1)C1CCCCC1C(=O)c1ccc(-c2ccn[nH]2)cc1` (racemic) [Example 47, (1R,2R and 1S,2S)—N-(3-Cyclopropyl-1,2,4-thiadiazol-5-yl)-2-[4-(1H-pyrazol-5-yl)benzoyl]cyclohexanecarboxamide], for which, in experiment [1], the pIC50 was 7.28. The IC50 in experiment [2] (setting [3]) worked out at 260 nM.

On to `Cc1cc(NC(=O)C2CCCCC2C(=O)c2ccc(-c3ccn[nH]3)cc2)sn1` (racemic) [Example 48, (1R,2R and 1S,2S)—N-(3-Methyl-1,2-thiazol-5-yl)-2-[4-(1H-pyrazol-5-yl)benzoyl]cyclohexanecarboxamide], for which, in experiment [1], the pIC50 was 7.64. For the same molecule, the IC50 in experiment [2] (setting [3]) worked out at 270 nM.

In the case of `Cc1nsc(NC(=O)C2CCCCC2C(=O)c2ccc(-c3ccn[nH]3)cc2)c1C#N` (racemic) [Example 49, (1R,2R and 1S,1S)—N-(4-Cyano-3-methyl-1,2-thiazol-5-yl)-2-[4-(1H-pyrazol-5-yl)benzoyl]cyclohexanecarboxamide], in experiment [1], the pIC50 is 7.36. The IC50 in experiment [2] (setting [3]) is 640 nM.

As to `Cn1cc(NC(=O)C2CCCCC2C(=O)c2ccc(-c3cc[nH]n3)cc2)c(C(N)=O)n1` (single isomer, unassigned) [Example 1, 1-Methyl-4-[({(1R,2R or 1S,2S)-2-[4-(1H-pyrazol-3-yl)benzoyl]-cyclohexyl}carbonyl)amino]-1H-pyrazole-3-carboxamide], the pIC50 in experiment [1] was 7.14. In addition, the IC50 in experiment [2] (setting [3]) was 112 nM.

In the case of `Cc1cc(-c2ccc(C(=O)C3CCCCC3C(=O)Nc3cn(C)nc3C#N)cc2)[nH]n1` (single isomer, unassigned) [Example 5b, (1R,2R or 1S,2S)—N-(3-Cyano-1-methyl-1H-pyrazol-4-yl)-2-[4-(3-methyl-1H-pyrazol-5-yl)benzoyl]cyclohexanecarboxamide], the IC50 in experiment [2] (setting [4]) was 95 nM.

In turn, `Cn1cc(NC(=O)C2CCCCC2C(=O)c2ccc(-c3cc[nH]n3)cc2)c(C#N)n1` (single isomer, unassigned) [Example 12, (1R,2R or 1S,2S)—N-(3-Cyano-1-methyl-1H-pyrazol-4-yl)-2-[4-(1H-pyrazol-3-yl)benzoyl]cyclohexanecarboxamide] showed a pIC50 in experiment [1] of 7.39. Besides, in experiment [2] (setting [4]), the IC50 is 100 nM.

The molecule `Cn1ncc(NC(=O)C2CCCCC2C(=O)c2ccc(-c3cc[nH]n3)cc2)c1C#N` (single isomer, unassigned) [Example 18a, (1R,2R or 1S,2S)—N-(5-Cyano-1-methyl-1H-pyrazol-4-yl)-2-[4-(1H-pyrazol-3-yl)benzoyl]cyclohexanecarboxamide] had a pIC50 in experiment [1] of 5.43.

In the case of `Cn1ncc(NC(=O)C2CCCCC2C(=O)c2ccc(-c3cc[nH]n3)cc2)c1C#N` (single isomer, unassigned) [Example 18b, (1S,2S or 1R,2R)—N-(5-Cyano-1-methyl-1H-pyrazol-4-yl)-2-[4-(1H-pyrazol-3-yl)benzoyl]cyclohexanecarboxamide], the pIC50 in experiment [1] is 7.55. The IC50 in experiment [2] (setting [4]) was determined as 114 nM.

For the molecule `Cc1cc(-c2ccc(C(=O)C3CCCCC3C(=O)Nc3cn(C)nc3C(N)=O)c(F)c2)[nH]n1` (single isomer, unassigned) [Example 36, 4-[({(1R,2R or 1S,2S)-2-[2-Fluoro-4-(3-methyl-1H-pyrazol-5-yl)benzoyl]-cyclohexyl}carbonyl)amino]-1-methyl-1H-pyrazole-3-carboxamide], in experiment [2] (setting [4]), the IC50 came to 148 nM.

For the molecule `Cc1cc(-c2ccc(C(=O)[C@@H]3CCCC[C@H]3C(=O)Nc3cnn(C)c3C(N)=O)cc2)[nH]n1` [Example 3, 1-Methyl-4-[({(1R,2R)-2-[4-(3-methyl-1H-pyrazol-5-yl)benzoyl]cyclohexyl}-carbonyl)amino]-1H-pyrazole-5-carboxamide], the concentration for half-maximal inhibition (IC50) in experiment [2] (setting [4]) amounted to 70 nM.

For `Cc1cc(-c2ccc(C(=O)[C@@H]3CCCC[C@H]3C(=O)Nc3cn(C)nc3C(N)=O)cc2)n[nH]1` [Example 4, 1-Methyl-4-[({(1R,2R)-2-[4-(3-methyl-1H-pyrazol-5-yl)benzoyl]-cyclohexyl}carbonyl)amino]-1H-pyrazole-3-carboxamide], in experiment [2] (setting [4]), the IC50 turned out to be 290 nM.

`Cn1cc(NC(=O)[C@@H]2CCCC[C@H]2C(=O)c2ccc(-c3ccn[nH]3)cc2)c(OC(F)F)n1` [Example 9, (1R,2R)—N-[3-(Difluoromethoxy)-1-methyl-1H-pyrazol-4-yl]-2-[4-(1H-pyrazol-5-yl)benzoyl]cyclohexanecarboxamide]: the IC50 in experiment [2] (setting [4]) came to 110 nM.

Regarding `Cc1cc(-c2ccc(C(=O)[C@@H]3CCCC[C@H]3C(=O)Nc3cnn(C)c3S(N)(=O)=O)cc2)[nH]n1` [Example 13, (1R,2R)-2-[4-(3-Methyl-1H-pyrazol-5-yl)benzoyl]-N-(1-methyl-5-sulfamoyl-1H-pyrazol-4-yl)cyclohexanecarboxamide], the IC50 in experiment [2] (setting [4]) worked out at 260 nM.

As for `CNC(=O)c1nn(C)cc1NC(=O)C1CCCCC1C(=O)c1ccc(-c2cc[nH]n2)cc1` [Example 20, N,1-Dimethyl-4-[({(1R,2R and 1S,2S)-2-[4-(1H-pyrazol-3-yl)benzoyl]-cyclohexyl}carbonyl)amino]-1H-pyrazole-3-carboxamide], the IC50 in experiment [2] (setting [3]) was determined as 281 nM.

For `Cn1nnc(NC(=O)C2CCCCC2C(=O)c2ccc(-c3ccn[nH]3)cc2)c1C1CC1` [Example 33, (1R,2R and 1S,2S)—N-(5-Cyclopropyl-1-methyl-1H-1,2,3-triazol-4-yl)-2-[4-(1H-pyrazol-5-yl)benzoyl]cyclohexanecarboxamide], the IC50 in experiment [2] (setting [4]) was determined as 117 nM.

Source of the values: patent US10183947B2, “Pyrazole derivatives useful as 5-lipoxygenase activating protein (FLAP) inhibitors” (ASTRAZENECA AB, priority 2015, dated 2019).
